Structures are written as SMILES. Entries after “also recorded” stand apart in the source; their conditions may differ.

The nature of data set [1]: Colorimetric serum calcium level in animals of the adhesion experiment (FIG. 4). In kind it is in vivo, mouse. The note with it: animals of the FIG. 3 experiment. As for the experimental part:
(§1) Serum calcium was measured with Calcium Dry-fast kit (Sentinel diagnostics, Milan, Italy) with minor modification over the standard method: 10 ul serum, standard solution, or water are added to 100 ul of reconstituted assay reagent in a 96 well plate and incubated 5 min before reading at 550 nm, RT. Standards are run in quadruplicate, blank (water) in duplicate, and samples in triplicate.
Blood serum was obtained from animals of the experiment described in FIG. 3 and calcium level was measured.

The test system of another data set is Balb/c mice. The experiment in a line: Mouse caecum abrasion model of post surgical adhesion formation. The data set is classed as in vivo. The note with it: for total adhesions score: sacrifice day seven, vs vehicle; for adhesion score / length (mm) of caecum adherent to peritoneum, difference to vehicle groups: Compound X 200, Compound Y 30, calcitriol 0.6 ug/kg i.p. once, then orally at MTD (100, 3, 0.3 ug/kg) once a day for 4 days, day seven, Anova with Bonferroni, FIG. 3. An excerpt: Female BALB/c mice (20 g; Charles River Breeding Laboratories) were used for all experiments. All mice were maintained under standard conditions of food and water ad libitum on a 12-hour day-night cycle according to Home Office regulations.
Adhesions were induced in mice with a protocol based on a procedure developed by Sulaiman and colleagues (Sulaiman H, Gabella G, Davis C, Mutsaers S E, Boulos P, Laurent G J, Herrick S E: Growth of nerve fibres into murine peritoneal adhesions. J Pathol 2000, 192:396-403). Briefly, mice were anesthetized with a mixture of inhaled isoflurane and oxygen, and a midline incision was made through the abdominal wall and peritoneum. A standard site (6 mm diameter and 1 mm depth), midway and 0.5 cm lateral to the midline incision on the left abdominal wall, was injured scraping 30 times with a scalpel blade. The cecum was isolated and scraped 30 times on its lateral aspect with a scalpel blade, after first irrigating with 0.9% sterile saline. The two injured surfaces were then apposed by placing two horizontal mattress sutures (8/0 Ethilon; Ethicon, Berkshire, UK) 1 cm apart. The midline incision was closed in two layers; the linea-alba with a continuous suture, and then the skin using michel suture clips (Aesculap, Tuttlingen Germany). This model was validated using leuprolide acetate, a GnRH agonist (Enantone, Takeida) injected at 1 mg/kg one week before surgery. The animals were sacrified at day 7 as usual and adhesion score reduction was evaluated.
To assess the effects of vitamin D compounds on adhesion formation, peritoneal adhesions were induced in 10 animals that were randomized to experimental groups receiving the vitamin D compound or vehicle. In the initial study, animals in the experimental group (n=5) received 0.1-ml i.p. injection of 200 ug/kg of Compound X in saline solution or vehicle (saline solution) only (n=5), at the surgery day then 4 days of daily oral administration (Compound X 100 ug/kg in miglyol or miglyol vehicle only). A second experiment was done with one group of animals (n=5) receiving 0.1-ml i.p. injection of 6 ug/kg of Compound Y in saline solution at the surgery day and then 4 days of daily oral administration (3 ug/kg in miglyol). Control animals (n=5) were similarly administered with vehicle alone (miglyol or saline solution according to the route of administration). The third experiment was designed to compare the effect of calcitriol. Briefly, 28 animals were operated and randomized four different groups: vehicle (miglyol or saline solution according to the route of administration) (n=13), Compound X i.p. […] 30 ug/kg plus three days oral administration at MTD (n=5), calcitriol i.p. […] All animals were killed at 7 days, and the adhesions were quantified in a blinded fashion. Each animal received an adhesion score based on the number, length and strength of adhesions formed. Millimetres of caecum adherent to peritoneum was also measured.

A further data set relates to CPSS mouse model. The experiment in a line: CPSS (cecal peritoneal scraping and sewing) mouse model of post-surgical adhesion, dose response. In kind it is in vivo. The settings on record: 30-100-300 ug/kg i.p. at the end of surgery; sacrifice after two weeks; vs vehicle; FIG. 10. On the procedure:
Different doses of Compound Y were tested in the CPSS (cecal peritoneal scraping and sewing) mouse model of post-surgical adhesion. Animals were treated with 30-100-300 ug/kg of Compound Y in […] of sterile saline with 0.1% Tween-20, 0.1% ethanol, i.p. at the end of surgery. Animals were sacrificed after two weeks and peritoneral adhesion evaluated. Means of in situ score of the four groups were compared and percentage of reduction of the mean in situ score of treated animals compared with vehicle group was considered.

Data set [2] in a line: Intraperitoneal single administration, serum calcium levels. The data set is classed as in vivo, mouse. The settings on record: female BALB/c mice, single i.p., FIG. 9.
A further data set deals with C57/BL6 mice. The experiment in a line: CLP (cecal ligation and puncture) mortality due to infection potentiation. In kind it is in vivo, mouse. The settings on record: 30 mg/kg IP on the day of surgery; ten mice per group; vs vehicle; FIG. 15. On the procedure:
CLP (cecal ligation and puncture) was performed with 23G needle and 50-70% of cecal ligation. Compound Y 30 mg/kg was administered IP on the day of surgery. The mortality was checked twice a day. Ten C57/BL6 mice per group were used.

A short description of data set [3]: Serum calcium levels in DUH rabbit model animals. In kind it is in vivo. The settings on record: both doses; prior to surgery, 24 hours after surgery and prior to necropsy; FIG. 12. As for the experimental part:
One ml of blood was drawn into red top tubes prior to surgery, 24 hours after surgery and prior to necropsy to allow the generation of serum to measure serum calcium levels. The blood was allowed to clot, the serum harvested by centrifugation and the serum calcium measured.

The subject of the next data set is 3T3-L1 cells. The experiment in a line: Fibrin clot lysis by mouse fibroblasts 3T3-L1. The note with it: cells incubated overnight with 10^-6 to 10^-9 M; normalized to untreated cells; FIG. 7. In kind it is cell-based. As for the experimental part: Confluent 3T3-L1 cells were incubated overnight with the following compounds: TGF-β1 5 ng/ml, Compound Y 10^−6, 10^−7, 10^−8 and 10^−9 M. After removing the supernatants, Fibrinolysis Buffer containing 3 μM fibrinogen and 100 nM plasminogen (“BM”) was added to each well. A fibrin clot was induced by adding 20 nM thrombin. Plates were incubated at 37° C. and clot density was determined by measuring optical density at 405 nm. Results were shown as relative fibrin clot density at different timepoints normalized to untreated cells.

Data set [4] concerns New Zealand White rabbits. In words: Double uterine horn (DUH) rabbit model of post-surgical adhesions. In kind it is in vivo. As for the experimental part:
Animals: Twenty eight, female New Zealand White rabbits, 2.4-2.7 kg, were purchased from Irish Farms (Norco, Calif.) and quarantined for at least 2 days prior to use. Seven rabbits were randomized into four treatment groups prior to initiation of surgery. The rabbits were housed on a 12:12 light:dark cycle with food and water available ad libitum.
Double Uterine Horn Model: Rabbits were anesthetized with a mixture of 55 mg/kg ketamine hydrochloride and 5 mg/kg Rompum intramuscularly. Following preparation for sterile surgery, a midline laparotomy was performed. The uterine horns were exteriorized and traumatized by abrasion of the serosal surface with gauze until punctate bleeding developed. Ischemia of both uterine horns was induced by removal of the collateral blood supply. The remaining blood supply to the uterine horns was the ascending branches of the utero-vaginal arterial supply of the myometrium. Treated animals received 25 mL of either vehicle (lactated Ringers' solution with 0.1% Tween 20, 0.1% isopropyl alcohol), or vehicle with one of two doses of Compound Y (30 or 300 μg/kg). An additional group of animals received surgery only. The horns were then returned to their normal anatomic position and the midline sutured with 3-0 Vicryl. The animals were weighed before surgery and necropsy.
After 7 days, the rabbits were terminated and the percentage of the area of the horns adherent to various organs determined.
In addition an overall score which took into account all of the above data was given to each rabbit. The following scoring system was used:
The rabbits were scored by two independent observers that were blinded to the prior treatment of the animal. If there was disagreement as to the score to be assigned to an individual animal, the higher score was given.

A short description of data set [5]: Serum calcemia after i.p. or i.p. plus oral Compound Y in CD1 mice (FIG. 5). In kind it is in vivo, mouse. The note with it: different doses i.p., or i.p. plus oral for 3 days at MTD (3 ug/kg), 24 h after the last administration. As for the experimental part: as §1
CD1 mice were used to test serum calcemia after different doses of Compound Y administered i.p. A second group of animals received both i.p. (different doses) and oral administration for 3 days at MTD (3 ug/kg). Serum calcemia was measured 24 h after the last administration.

For a further data set, the system named is hairless mice. In words: Full thickness wound healing mouse model. The settings on record: daily oral 3 mg/kg, 5 days a week, 5 hairless mice per group, vs vehicle, FIG. 13. The data set is classed as in vivo. On the procedure:
One full thickness wound of 1 cm in diameter was marked using a template and the tissue was excised to the level of the panniculus carnosus using dissecting scissors and forceps. The wound healing was determined by drawing the wound margin with tracing film. The rate of wound healing is expressed as the percentage area remaining 5 hairless mice per group, daily oral treatment with 3 mg/kg of Compound Y, 5 days a week. Wound healing curve using the Boltzman equation and V50 (half time of wound healing) were calculated.

Data set [6] relates to Human mesothelial cells (LP9). The experiment in a line: tPA and PAI-1 production by ELISA in human mesothelial cells. In kind it is cell-based. The settings on record: different doses; supernatants at 48 h; FIG. 8. As for the experimental part: Human mesothelial cells (LP9, Cornell University) were plated in a 96 well plate in the presence of different doses of Compound Y. Supernatants were harvested at 48 h and tPA and PAI-1 production was measured by ELISA. tPA/PAI-1 ratio was calculated. Statistical analysis was performed by ANOVA test.
(In general: ELISA stands for enzyme-linked immunosorbent assay.)

A further data set concerns Human mesothelial cells. The experiment in a line: VEGF and TGF-b production by ELISA in human mesothelial cells. The data set is classed as cell-based. The note with it: different doses; supernatants at 48 h; FIG. 14. As for the experimental part:
Human mesothelial cells (Cornell Cell Repositories) were plated in a 96 well plate in the presence of different doses of Compound Y. Supernatants were harvested at 48 h and VEGF and TGF-b production was measured by ELISA. Total number of live cells were quantified by fluorimetric assay.

Take `C=C1/C(=C\C=C2/CCC[C@]3(C)C([C@@H](C)C/C=C/C(O)(CC)CC)=CC[C@@H]23)C[C@@H](O)C[C@@H]1F` [Compound X, 1-alpha-fluoro-25-hydroxy-16,23E-diene-26,27-bishomo-20-epi-cholecalciferol]: the serum calcium level result in data set [1] is “slightly hypercalcemic”. Besides, the total adhesions score result in the data set on Balb/c mice (200 ug/kg i.p. once four hours after surgery, then oral 100 ug/kg once a day for 4 days, FIG. 1) is “significantly reduces”. The “adhesion score / length (mm) of caecum adherent to peritoneum, difference to vehicle groups” value with Balb/c mice is “statistically significant”.

In the case of `CC(C)(O)CCCC(CCCC(C)(C)O)[C@H]1CC[C@H]2/C(=C/C=C3C[C@@H](O)C[C@H](O)C3)CCC[C@]12C` [Compound Y, 1,25-dihydroxy-21-(3-hydroxy-3-methylbutyl)-19-nor-cholecalciferol], the “cecal-peritoneal adhesion formation (mean in situ score)” value in the data set with CPSS mouse model was “reduces cecal-peritoneal adhesion formation in a dose dependent manner”. Besides, the serum calcemia entry in [2] (high dosage (300 mg/kg)) was “Transient hypercalcemia”; in data set [5], “no hypercalcemic effect”. Further, in the data set on C57/BL6 mice, the “mortality (survival curves, log rank test)” value is reported as “no statistically significant difference”. The “serum calcium (signs of hypercalcemia)” value in data set [3] is given as “No signs of hypercalcemia”. Besides, the “fibrin clot lysis (relative fibrin clot density, OD 405 nm)” value in the data set with 3T3-L1 cells is listed as “accelerates fibrin clot lysis by mouse fibroblasts in a dose dependent manner”. The total adhesions score result with Balb/c mice (6 ug/kg i.p. once four hours after surgery, then orally 3 ug/kg once a day for 4 days, FIG. 2) is “significantly reduces”. Also, the “adhesion score / length (mm) of caecum adherent to peritoneum, difference to vehicle groups” value with Balb/c mice is given as “statistically significant”. The “adhesion formation (overall adhesion score)” value in data set [4] (30 or 300 ug/kg in 25 mL at surgery, 7 days, P<0.001 for both doses compared with both controls, FIG. 11) is “significantly reduced”. Further, in [4] (30 or 300 ug/kg, necropsy after 7 days), the “peritoneal inflammation, weight loss or hypercalcemia at necropsy” value is “No peritoneal inflammation, weight loss or hypercalcemia were observed”. For the same molecule, the “efficacy in preventing adhesion formation compared with prior studies of icodextrin” value in [4] (DUH rabbit model, icodextrin data from Verco et al. 2000, FIG. 16) is “comparable efficacy”. In addition, in [4] (DUH rabbit model, lazaroid data from Rodgers et al. 1998, FIG. 17), the “efficacy in preventing adhesion formation compared with prior studies of lazaroids” value is “comparable efficacy”. For the same molecule, the “wound healing (percentage wound area remaining, healing curve, V50)” value with hairless mice is given as “No statistically significant difference; also recorded: does not delay wound healing”. Besides, the tPA/PAI-1 ratio result in data set [6] is “increased”. Moreover, the TGF-b production entry in the data set on Human mesothelial cells is given as “does not affect”. Besides, in the data set with Human mesothelial cells, the VEGF production entry was “does not affect”.

As to `CCNC(=O)[C@@H]1CCCN1C(=O)[C@H](CCCNC(=N)N)NC(=O)[C@H](CC(C)C)NC(=O)[C@@H](CC(C)C)NC(=O)[C@H](Cc1ccc(O)cc1)NC(=O)[C@H](CO)NC(=O)[C@H](Cc1c[nH]c2ccccc12)NC(=O)[C@H](Cc1c[nH]cn1)NC(=O)[C@@H]1CCC(=O)N1` [leuprolide acetate, reference compound], the total adhesion score entry in the data set on Balb/c mice (1 mg/kg injected one week before surgery, sacrifice day 7, model validation, FIG. 6) is recorded as “statistically significant reduction”.

Turning to `C=C1/C(=C\C=C2/CCC[C@]3(C)[C@@H]([C@H](C)CCCC(C)(C)O)CC[C@@H]23)C[C@@H](O)C[C@@H]1O` [calcitriol, reference compound], the serum calcemia result in [2] (16 and 24 hours after administration) was “more pronounced and sustained hypercalcemia”. For the same molecule, in the data set with Balb/c mice, the “adhesion score / length (mm) of caecum adherent to peritoneum, difference to vehicle groups” value is on record as “statistically significant”.

These data come from patent publication US20100093675A1, “NOVEL METHOD” (BIOXELL S.P.A., priority 2006, published 2010).
